The source made the active and inactive calls. The rule behind the calls is not given here.
Tested on: CCRIS mutagenicity, Ames/micronucleus/aberration tests
Experiment: CCRIS mutagenicity studies
[1] = Test System: AMES SALMONELLA TYPHIMURIUM, Strain/Indicator: TA98, Metabolic Activation: NONE, Method: STANDARD PLATE
[2] = Test System: AMES SALMONELLA TYPHIMURIUM, Strain/Indicator: TA100, Metabolic Activation: NONE, Method: STANDARD PLATE
[3] = Test System: Ames Salmonella typhimurium, Strain/Indicator: TA98, Metabolic Activation: None, Method: Preincubation
[4] = Test System: Ames Salmonella typhimurium, Strain/Indicator: TA100, Metabolic Activation: None, Method: Preincubation

Measured: mutagenic call

CC(=O)N(O)c1ccc(Sc2ccccc2)cc1
active: [1] active; positive | Test System: AMES SALMONELLA TYPHIMURIUM, Strain/Indicator: TA98, Metabolic Activation: RAT, LIVER, S-9, AROCLOR 1254, Method: STANDARD PLATE active; positive

CCN(CC)S(=O)(=O)c1ccc(N)cc1
inactive: Test System: AMES SALMONELLA TYPHIMURIUM, Strain/Indicator: TA98, Metabolic Activation: NONE, Method: PREINCUBATION inactive; negative | Test System: AMES SALMONELLA TYPHIMURIUM, Strain/Indicator: TA98, Metabolic Activation: RAT, LIVER, S-9, AROCLOR 1254, Method: PREINCUBATION inactive; negative | Test System: AMES SALMONELLA TYPHIMURIUM, Strain/Indicator: TA100, Metabolic Activation: NONE, Method: PREINCUBATION inactive; negative | Test System: AMES SALMONELLA TYPHIMURIUM, Strain/Indicator: TA100, Metabolic Activation: RAT, LIVER, S-9, AROCLOR 1254, Method: PREINCUBATION inactive; negative

C=C[Si](C)(C)N[Si](C)(C)C=C
inactive: Test System: AMES SALMONELLA TYPHIMURIUM, Strain/Indicator: TA98, Metabolic Activation: HAMSTER, LIVER, S-9, AROCLOR 1254 (10%), Method: STANDARD PLATE inactive; negative | [1] inactive; negative | Test System: AMES SALMONELLA TYPHIMURIUM, Strain/Indicator: TA98, Metabolic Activation: RAT, LIVER, S-9, AROCLOR 1254 (10%), Method: STANDARD PLATE inactive; negative | Test System: AMES SALMONELLA TYPHIMURIUM, Strain/Indicator: TA100, Metabolic Activation: HAMSTER, LIVER, S-9, AROCLOR 1254 (10%), Method: STANDARD PLATE inactive; negative | [2] inactive; negative | Test System: AMES SALMONELLA TYPHIMURIUM, Strain/Indicator: TA100, Metabolic Activation: RAT, LIVER, S-9, AROCLOR 1254 (10%), Method: STANDARD PLATE inactive; negative | Test System: AMES SALMONELLA TYPHIMURIUM, Strain/Indicator: TA1535, Metabolic Activation: HAMSTER, LIVER, S-9, AROCLOR 1254 (10%), Method: STANDARD PLATE inactive; negative | Test System: AMES SALMONELLA TYPHIMURIUM, Strain/Indicator: TA1535, Metabolic Activation: NONE, Method: STANDARD PLATE inactive; negative | Test System: AMES SALMONELLA TYPHIMURIUM, Strain/Indicator: TA1535, Metabolic Activation: RAT, LIVER, S-9, AROCLOR 1254 (10%), Method: STANDARD PLATE inactive; negative | Test System: AMES SALMONELLA TYPHIMURIUM, Strain/Indicator: TA1537, Metabolic Activation: HAMSTER, LIVER, S-9, AROCLOR 1254 (10%), Method: STANDARD PLATE inactive; negative | Test System: AMES SALMONELLA TYPHIMURIUM, Strain/Indicator: TA1537, Metabolic Activation: NONE, Method: STANDARD PLATE inactive; negative | Test System: AMES SALMONELLA TYPHIMURIUM, Strain/Indicator: TA1537, Metabolic Activation: RAT, LIVER, S-9, AROCLOR 1254 (10%), Method: STANDARD PLATE inactive; negative | Test System: AMES SALMONELLA TYPHIMURIUM, Strain/Indicator: TA1538, Metabolic Activation: HAMSTER, LIVER, S-9, AROCLOR 1254 (10%), Method: STANDARD PLATE inactive; negative | Test System: AMES SALMONELLA TYPHIMURIUM, Strain/Indicator: TA1538, Metabolic Activation: NONE, Method: STANDARD PLATE inactive; negative | Test System: AMES SALMONELLA TYPHIMURIUM, Strain/Indicator: TA1538, Metabolic Activation: RAT, LIVER, S-9, AROCLOR 1254 (10%), Method: STANDARD PLATE inactive; negative | Test System: MOUSE LYMPHOMA, Strain/Indicator: L5178Y (TK+/TK-), Metabolic Activation: NONE, Method: SUSPENSION/PLATE inactive; negative. reevaluation of results: negative | Test System: MOUSE LYMPHOMA, Strain/Indicator: L5178Y (TK+/TK-), Metabolic Activation: RAT, LIVER, S-9, AROCLOR 1254, Method: SUSPENSION/PLATE inactive; negative. reevaluation of results: negative

COc1cc(CNC(=O)C(C)Br)ccc1O (configuration not stated)
active: [2] active; positive

O[C@@H]1c2ccc3cc4ccccc4cc3c2[C@@H]2OC2[C@@H]1O (some centres not stated)
active: Test System: CHINESE HAMSTER V-79, Strain/Indicator: V-79/8-AZAGUANINE, Metabolic Activation: NONE, Method: STANDARD PLATE active; positive

C=CC1=C(C)/C(=C/c2[nH]c(Cc3[nH]c(/C=C4\NC(=O)C(C)=C4C=C)c(C)c3CCC(=O)O)c(CCC(=O)O)c2C)NC1=O
inactive: Test System: Ames Salmonella typhimurium, Strain/Indicator: TA98, Metabolic Activation: Liver, S-9, Method: Preincubation inactive; negative | [3] inactive; negative | Test System: Ames Salmonella typhimurium, Strain/Indicator: TA100, Metabolic Activation: Liver, S-9, Method: Preincubation inactive; negative | [4] inactive; negative | Test System: Ames Salmonella typhimurium, Strain/Indicator: TA102, Metabolic Activation: Liver, S-9, Method: Preincubation inactive; negative | Test System: Ames Salmonella typhimurium, Strain/Indicator: TA102, Metabolic Activation: None, Method: Preincubation inactive; negative

CNc1ccc2nc3ccc(=[N+](C)C)cc-3sc2c1
active: [3] active; positive | Test System: Ames Salmonella typhimurium, Strain/Indicator: TA98, Metabolic Activation: Rat, Liver, S-9, Aroclor 1254 (10%), Method: Preincubation active; positive | [4] active; positive | Test System: Ames Salmonella typhimurium, Strain/Indicator: TA100, Metabolic Activation: Rat, Liver, S-9, Aroclor 1254 (10%), Method: Preincubation active; positive | Test System: E. coli, Strain/Indicator: WPM uvrA/pKM101, Metabolic Activation: None, Method: Preincubation active; positive | Test System: E. coli, Strain/Indicator: WPM uvrA/pKM101, Metabolic Activation: Rat, Liver, S-9, Aroclor 1254 (10%), Method: Preincubation active; positive

Source: PubChem BioAssay AID1259407 (Chemical Carcinogenesis Research Information System (CCRIS), 2018)
